Assay results: patent publication US20220362264A1, “ABIRATERONE-CYCLIC OLIGOMER PHARMACEUTICAL FORMULATIONS AND METHODS OF FORMATION AND ADMINISTRATION THEREOF” (DISPERSOL TECHNOLOGIES, LLC., priority 2019, published 2022)

Tests used:
[1] = tested on: prostate specific antigen (PSA); conditions: 1,000 mg daily, well controlled trials; cited from earlier work
[2] = tested on: 22RV1 human prostate tumor xenograft; assay: Anti-tumor activity in 22RV1 human prostate tumor xenograft model; type: in vivo, CB.17 SCID mice; conditions: low and high doses, once-daily oral gavage
Description: The objective of the xenograft mice study was to determine the anti-tumor activity of a composition made per Example 2.4 as a single agent versus abiraterone acetate in the 22RV1 human prostate tumor xenograft model. The study was conducted in CB.17 SCID mice injected with 22RV1 cells (5×10^6 cells/mouse) in the subcutaneous right flank. Tumors were grown to a mean tumor size between 100 and 150 mm^3 prior to study enrollment. The mice were dosed with the test article and reference once-daily by oral gavage per Table 12. Tumor volume was measured throughout the study. The study was terminated on day 26 when mean tumor volume of two experimental groups reached≥1500 mm^3.

[3] = Phase solubility analysis of abiraterone-HPBCD; type: physicochemical; conditions: with HPBCD, in 0.01N HCl and FaSSIF
Description: Phase Solubility Analysis. Phase solubility analysis was conducted in two separate media, i.e., 0.01N HCl (pH 2.0) and FaSSIF (prepared in 50 mMol Phosphate Buffer pH 6.8). Solutions of HPBCD ranging from 0 mg/mL to 600 mg/mL were prepared in each media in scintillation vials. An excess of abiraterone was added to each vial and the vials were sonicated for 30 minutes and placed on a bench. Samples were pulled from each vial at time points of 48 hrs and 7 days. The samples were centrifuged using an ultracentrifuge (Eppendrof, Hamburg, Germany) The supernatants were further diluted using the HPLC diluent and analyzed by HPLC method mentioned above to find the concentration of abiraterone.

[4] = cited from earlier work

type of solution state phase solubility profile (Higuchi and Connors) [3]	SMILES	treated patients achieving target PSA reductions [1]	tumor growth relative to vehicle control [2]	pKa [4]
	CC(=O)O[C@H]1CC[C@@]2(C)C(=CC[C@@H]3[C@@H]2CC[C@]2(C)C(c4cccnc4)=CC[C@@H]32)C1 [Abiraterone Acetate, (3β)-17-(3-pyridinyl)androsta-5, 16-dien-3-ol acetate]	up to 60%	did not result in statistically different tumor growth	
A-type	C[C@]12CC[C@H](O)CC1=CC[C@@H]1[C@@H]2CC[C@]2(C)C(c3cccnc3)=CC[C@@H]12 [Abiraterone, (3β)-17-(3-pyridinyl)androsta-5,16-dien-3-ol]			4.81
